According to patent US12065428B2, “Anti-viral compounds” (Aligos Therapeutics, Inc., priority 2021, dated 2024):
Where two headings read alike, the source gives them in different places.

Experiments:
SARS-Cov-2 3CLpro = target: T1, SARS-Cov-2 3CLpro (Severe acute respiratory syndrome coronavirus 2, UniProt P0DTD1); experiment: SARS-Cov-2 3CLpro and HRV3C duplex assay (SAMDI-MS): 3CLpro; assay type: biochemical; conditions: 3CLpro, duplex assay, 30 mins preincubation; class symbols; read-out: SARS-Cov-2 IC50
T1 construct: SARS-Cov-2 3CLpro and HRV3C Duplex Assay

HRV3C = target: T2, HRV3C (Human rhinovirus 14, UniProt P03303); experiment: biochemical
T2 construct: SARS-Cov-2 3CLpro and HRV3C Duplex Assay

[1] = test system: human beta-coronavirus OC43; experiment: OC43 coronavirus assay in HeLa cells (cytopathic effect, cell-titer-glo); assay type: cell-based
[2] = Cytotoxicity plates without OC43 virus in HeLa cells; assay type: cell-based; conditions: human, HeLa cells (uninfected), class symbols
Description: The human beta-coronavirus OC43 was purchased from ATCC (Manassas, VA) and propagated using HCT-8 human colorectal epithelial cells (ATCC). HeLa human cervical epithelial cells (ATCC) were used as susceptible host cell lines and were cultured using EMEM media, supplemented with 10% fetal bovine serum (FBS), 1% (v/v) penicillin/streptomycin (P/S), 1% (v/v) HEPES and 1% (v/v) cellgro Glutagro™ supplement (all Corning, Manassas, VA) at 37° C. For the OC43 antiviral assay, 1.5×10^4 HeLa cells per well were plated in 100 μL complete media in white 96-well plates with clear bottoms at 37° C. for up to 24 h to facilitate attachment and allow cells to recover from seeding stresses. Next day, the cell culture medium was removed. Serially diluted compounds in 100 μL assay media (EMEM, 2% FBS, 1% P/S, 1% cellgro Glutagro™ supplement, 1% HEPES) were added to the cells and incubated for 4H at 37° C. in a humidified 5% CO2 incubator. 100 μL of OC43 virus stock was diluted to a concentration known to produce optimal cytopathic effect, inducing 80-90% reduction in cell viability. 96-well plates were incubated for 6 (HeLa) days at 33° C.; each plate contains uninfected control wells as well as virus-infected wells that were not treated with compound. Cytotoxicity plates without the addition of OC43 virus were carried out in parallel. At the end of the incubation period, 100 μL cell culture supernatant was replaced with 100 μL cell-titer-glo reagent (Promega, Madison, WI) and incubated for at least 10 min at rt prior to measuring luminescence. Luminescence was measured on a Perkin Elmer (Waltham, MA) Envision plate reader. Antiviral % inhibition was calculated as follows: [(Compound treated cells infected sample)−(no compound infected control)]/[(Uninfected control)−(no compound infected control)]*100; Using GraphPad (San Diego, CA) prism software version 8.3.1, the antiviral dose-response plot was generated as a sigmoidal fit, log(inhibitor) vs response-variable slope (four parameters) model and the EC50 was calculated which is the predicted compound concentration corresponding to a 50% inhibition of the viral cytopathic effect.

[3] = test system: SARS-CoV-2-GHB-03021/2020; experiment: microbe, parasite or virus in culture; assay type: cell-based
human cathepsin L = target: T3, human cathepsin L (Homo sapiens, UniProt P07711); experiment: Cathepsin L assay (Z-FR-AMC fluorescence); assay type: biochemical; conditions: 10 pM human cathepsin L, 30 mins preincubation; class symbols
T3 construct: purchased R&D Systems
Description: For the cathepsin L assay, 10 pM of human cathepsin L (R&D Systems; Minneapolis, MN) was preincubated for 30 mins with test compounds. Reactions were initiated by the addition of a peptide substrate Z-FR-AMC (final concentration 2 μM, Anaspec; Fremont, CA). Fluorescence was measured at 2-minute intervals for 30 mins using a 355/460 excitation/emission filter module on an Envision plate reader (Perkin Elmer; Waltham, MA). The IC50 values were calculated for each assay by fitting the curves using a four-parameter equation in GraphPad Prism.

[4] = HRV3C, duplex assay, 30 mins preincubation, class symbols, read-out: HRV IC50
[5] = Betacoronavirus 1, 144 h, OC43 in HeLa cells, 6 days at 33° C., class symbols, read-out: EC50
[6] = Severe acute respiratory syndrome coronavirus 2, Vero C1008, 96 h; read-out: VeroE6 + CP (EC50)

T2 sequence (P03303 1538-1719): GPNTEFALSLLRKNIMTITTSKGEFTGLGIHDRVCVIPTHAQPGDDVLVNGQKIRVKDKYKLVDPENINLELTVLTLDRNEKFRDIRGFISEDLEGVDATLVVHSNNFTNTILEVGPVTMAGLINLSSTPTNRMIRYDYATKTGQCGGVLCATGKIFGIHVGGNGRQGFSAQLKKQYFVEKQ
T3 sequence (P07711 114-333): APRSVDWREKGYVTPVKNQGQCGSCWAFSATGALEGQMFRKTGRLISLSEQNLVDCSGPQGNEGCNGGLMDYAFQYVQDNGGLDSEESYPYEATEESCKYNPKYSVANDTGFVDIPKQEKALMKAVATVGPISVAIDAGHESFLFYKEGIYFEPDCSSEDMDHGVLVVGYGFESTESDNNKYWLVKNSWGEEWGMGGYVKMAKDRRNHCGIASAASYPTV

| SMILES | IC50 (SARS-Cov-2 3CLpro) | IC50 (HRV3C; [4]) | EC50 [1, 5] | CC50 at 6 days [2] | EC50 [3, 6] | IC50 (human cathepsin L) | IC50 (HRV3C; read-out: HRV IC50) | EC50 ([1]; Betacoronavirus 1, OC43, HeLa) | IC50 (HRV3C) | EC50 ([3]; Severe acute respiratory syndrome coronavirus 2, Vero C1008, 96 h, read-out: VeroE6 + CP (EC50)) |
| --- | --- | --- | --- | --- | --- | --- | --- | --- | --- | --- |
| O=C(NC1CC1)C(=O)C(C[C@@H]1CCNC1=O)NC(=O)[C@@H]1CC2(CCN1C(=O)c1cc3cccc4c3n1CCC4)CC2 (stereo partly drawn) [Compound 19, 3-{[(5S)-6-{1-azatricyclo[6.3.1.0^{4,12}]dodeca-2,4(12),5,7-tetraene-2-carbonyl}-6-azaspiro[2.5]octan-5-yl]formamido}-N-cyclopropyl-2-oxo-4-[(3S)-2-oxopyrrolidin-3-yl]butanamide] | < 20 nM | 200 to 2000 nM | 1000 to 10000 nM | ≥ 100000 nM | < 1000 nM | 1000 to 10000 nM |  |  |  |  |
| O=C(NC1CC1)C(=O)[C@H](C[C@@H]1CCNC1=O)NC(=O)[C@@H]1CC2(CCN1C(=O)c1cn3ccccc3n1)CC2 [Compound 20, (3S)—N-cyclopropyl-3-{[(5S)-6-{imidazo[1,2-a]pyridine-2-carbonyl}-6-azaspiro[2.5]octan-5-yl]formamido}-2-oxo-4-[(3S)-2-oxopyrrolidin-3-yl]butanamide] | 200 to 2000 nM |  |  | ≥ 100000 nM | > 50000 nM | ≥ 10000 nM | > 10000 nM | > 10000 nM |  |  |
| O=C(NC1CC1)C(=O)[C@H](C[C@@H]1CCNC1=O)NC(=O)[C@@H]1CC2(CCN1C(=O)c1ccc3ccccc3c1)CC2 [Compound 21, (S)-6-(2-naphthoyl)-N—((S)-4-(cyclopropylamino)-3,4-dioxo-1-((S)-2-oxopyrrolidin-3-yl)butan-2-yl)-6-azaspiro[2.5]octane-5-carboxamide] | < 20 nM | 200 to 2000 nM | 100 to 1000 nM | ≥ 100000 nM | < 1000 nM | 1000 to 10000 nM |  |  |  |  |
| O=C(NC1CC1)C(=O)C(C[C@@H]1CCNC1=O)NC(=O)[C@@H]1CC2(CCN1C(=O)c1cc3ccccc3n1-c1ccccc1)CC2 (stereo partly drawn) [Compound 22, N-cyclopropyl-2-oxo-4-[(3S)-2-oxopyrrolidin-3-yl]-3-{[(5S)-6-(1-phenylindole-2-carbonyl)-6-azaspiro[2.5]octan-5-yl]formamido}butanamide] | < 20 nM |  | 100 to 1000 nM | 10000 to 100000 nM |  | ≥ 10000 nM |  |  | 200 to 2000 nM | < 1000 nM |
| O=C(NC1CC1)C(=O)C(C[C@@H]1CCNC1=O)NC(=O)[C@@H]1CC2(CCN1C(=O)c1nc3ccccc3s1)CC2 (stereo partly drawn) [Compound 23, 3-{[(5S)-6-(1,3-benzothiazole-2-carbonyl)-6-azaspiro[2.5]octan-5-yl]formamido}-N-cyclopropyl-2-oxo-4-[(3S)-2-oxopyrrolidin-3-yl]butanamide] | 20 to 200 nM | 2000 to 20000 nM | 100 to 1000 nM | ≥ 100000 nM | 1000 to 10000 nM | ≥ 10000 nM |  |  |  |  |
| O=C(NC1CC1)C(=O)C(C[C@@H]1CCNC1=O)NC(=O)[C@@H]1CC2(CCN1C(=O)c1cnn(-c3ccccc3)n1)CC2 (stereo partly drawn) [Compound 24] | 200 to 2000 nM | 200 to 2000 nM | 1000 to 10000 nM | ≥ 100000 nM | 1000 to 10000 nM | ≥ 10000 nM |  |  |  |  |
| O=C(NC1CC1)C(=O)C(C[C@@H]1CCNC1=O)NC(=O)[C@@H]1[C@@H]2C[C@@H](CC23CC3)N1C(=O)c1cc2ccccc2s1 (stereo partly drawn) [Compound 25, 3-[(1R,4S,6S)-5-(1-benzothiophene-2-carbonyl)-5-azaspiro[bicyclo[2.2.1]heptane-2,1′-cyclopropan]-6-ylformamido]-N-cyclopropyl-2-oxo-4-[(3S)-2-oxopyrrolidin-3-yl]butanamide] | 20 to 200 nM | 200 to 2000 nM | 1000 to 10000 nM | ≥ 100000 nM | 1000 to 10000 nM | ≥ 10000 nM |  |  |  |  |
| O=C(NC1CC1)C(=O)C(C[C@@H]1CCNC1=O)NC(=O)[C@@H]1[C@@H]2C[C@@H](CC23CC3)N1C(=O)c1nc(-c2ccccc2)cs1 (stereo partly drawn) [Compound 26, N-cyclopropyl-2-oxo-4-[(3S)-2-oxopyrrolidin-3-yl]-3-[(1R,4S,6S)-5-(4-phenyl-1,3-thiazole-2-carbonyl)-5-azaspiro[bicyclo[2.2.1]heptane-2,1′-cyclopropan]-6-ylformamido]butanamide] | 200 to 2000 nM | 200 to 2000 nM | 1000 to 10000 nM | ≥ 100000 nM | 1000 to 10000 nM | ≥ 10000 nM |  |  |  |  |
